The text below walks through data of publication PMC3071876 (Comparative biochemistry and physiology. Part B, …, 2011).

Data set [1] deals with T1, zebrafish monoamine oxidase (zMAO) (Danio rerio, UniProt Q6NSN2).
T1 sequence (Q6NSN2 1-522): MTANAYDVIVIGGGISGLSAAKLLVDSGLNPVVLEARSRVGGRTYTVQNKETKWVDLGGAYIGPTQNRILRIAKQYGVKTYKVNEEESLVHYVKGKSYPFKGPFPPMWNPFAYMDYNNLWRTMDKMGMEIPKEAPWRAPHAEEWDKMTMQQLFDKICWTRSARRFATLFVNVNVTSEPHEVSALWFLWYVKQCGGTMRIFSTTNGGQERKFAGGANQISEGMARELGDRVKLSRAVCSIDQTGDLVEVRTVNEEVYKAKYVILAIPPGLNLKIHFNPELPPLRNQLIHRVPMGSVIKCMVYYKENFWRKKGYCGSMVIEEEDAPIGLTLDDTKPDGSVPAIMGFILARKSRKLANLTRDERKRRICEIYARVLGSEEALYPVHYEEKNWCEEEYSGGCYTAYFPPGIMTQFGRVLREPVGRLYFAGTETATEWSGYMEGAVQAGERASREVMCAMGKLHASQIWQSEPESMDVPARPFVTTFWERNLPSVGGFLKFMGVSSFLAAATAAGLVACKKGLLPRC
The data set can be described thus: Reversible inhibition of zMAO with kynuramine as substrate. The data set is classed as biochemical.

The target in data set [2] is T1, zebrafish monoamine oxidase (zMAO). The data set can be described thus: Steady-state kinetics of zMAO-catalyzed amine substrate oxidation. The data set is classed as biochemical. The following applies: for ^Dkcat: deuterium kinetic isotope effect; for kcat (H): air saturation (240 μM O2); for kcat (D): α,α-2[H] benzylamine analogue.
Data set [3] concerns the target T2, hMAO B (Homo sapiens, UniProt P27338).
T2 sequence (P27338 1-520): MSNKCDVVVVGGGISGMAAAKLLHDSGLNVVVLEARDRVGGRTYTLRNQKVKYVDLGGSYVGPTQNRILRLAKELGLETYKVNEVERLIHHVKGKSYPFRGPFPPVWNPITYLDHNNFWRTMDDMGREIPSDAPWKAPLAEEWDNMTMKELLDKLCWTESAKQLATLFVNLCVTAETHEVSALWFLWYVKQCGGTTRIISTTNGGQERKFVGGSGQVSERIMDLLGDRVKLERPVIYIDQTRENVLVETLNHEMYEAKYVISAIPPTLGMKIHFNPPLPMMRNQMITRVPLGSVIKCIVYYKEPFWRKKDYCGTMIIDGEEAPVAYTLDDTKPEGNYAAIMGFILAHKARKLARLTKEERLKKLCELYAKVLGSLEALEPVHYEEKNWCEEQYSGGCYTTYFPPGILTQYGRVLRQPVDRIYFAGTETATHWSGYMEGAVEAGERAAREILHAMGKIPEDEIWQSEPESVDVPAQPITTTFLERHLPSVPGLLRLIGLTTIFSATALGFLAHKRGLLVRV
The conditions noted are these: cited from earlier work.

Data set [4] addresses T3, hMAO A (Homo sapiens, UniProt P21397).
T3 sequence (P21397 1-527): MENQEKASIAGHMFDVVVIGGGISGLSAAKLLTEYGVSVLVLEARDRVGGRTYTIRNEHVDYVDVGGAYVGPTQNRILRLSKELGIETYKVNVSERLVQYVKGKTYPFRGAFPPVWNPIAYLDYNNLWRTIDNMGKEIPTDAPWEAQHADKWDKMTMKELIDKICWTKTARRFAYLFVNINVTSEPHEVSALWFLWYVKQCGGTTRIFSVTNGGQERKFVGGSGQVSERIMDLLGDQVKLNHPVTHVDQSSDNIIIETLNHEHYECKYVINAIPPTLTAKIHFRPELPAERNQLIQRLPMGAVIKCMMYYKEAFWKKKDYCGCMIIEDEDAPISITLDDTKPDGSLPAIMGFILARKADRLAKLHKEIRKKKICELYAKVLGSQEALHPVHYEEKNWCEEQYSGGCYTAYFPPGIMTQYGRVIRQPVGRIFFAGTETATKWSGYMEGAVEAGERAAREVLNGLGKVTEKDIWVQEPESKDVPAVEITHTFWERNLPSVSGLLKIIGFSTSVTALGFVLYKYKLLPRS
The following applies: cited from earlier work; for Ki: hMAO A.

Data set [5] concerns the target T3, hMAO A. The conditions noted are these: ref Li, cited from earlier work.
The target in data set [6] is T2, hMAO B. The data set can be described thus: Reversible inhibition of hMAO B. Format: biochemical. The conditions noted are these: no reference mark, indole analogues tested up to 100 μM.
Data set [7] addresses T2, hMAO B. The conditions noted are these: cited from earlier work. The source holds these as a separate data set.
Substrate in data set [8]: NCCC(=O)c1ccccc1N
The data set is described as follows: Steady-state kinetics of zMAO-catalyzed amine substrate oxidation. Format: biochemical, Danio rerio. The conditions noted are these: other: zMAO, 25 °C, pH 7.4.

Substrate in data set [9]: NCCCCc1ccccc1
The description is as above. Format: biochemical, Danio rerio. The following applies: other: zMAO, 25 °C, pH 7.4.

Substrate in data set [10]: NCCc1ccc(O)cc1
The description is as above. Format: biochemical, Danio rerio. The following applies: other: zMAO, 25 °C, pH 7.4.

Substrate in data set [11]: NCc1ccccc1
The data set is described as above. Format: biochemical, Danio rerio. The conditions noted are these: other: zMAO, para-substituted benzylamine; pH 7.4; 25.0 °C.

Substrate in data set [12]: NCCc1ccc(O)c(O)c1
The data set is described as follows: purified protein, by the assay type. The following applies: other: zMAO, 25 °C, pH 7.4.

Setting [13] is: zMAO, hMAO B specific inhibitors (Table 3), kynuramine substrate.
The mark [14] stands for this setting: ref Nandigama and Edmondson (2000).
[15] abbreviates: zMAO, hMAO A specific inhibitors (Table 2), kynuramine substrate.
Where [16] appears, read: read-out: Km(H), zMAO, para-substituted benzylamine.
Where [17] appears, read: zMAO, para-substituted benzylamine.

Read-outs that look alike come from different tables or passages of the source.

On to `C(C=Cc1ccccc1)=Cc1ccccc1` [1,4-Diphenyl-1,3-Butadiene], for which, in [1] (setting [13]), the Ki entry is listed as “No inhibition”.
The same measure, in the same setting: in the case of `C(=CCc1ccccc1)Cc1ccccc1` [1,4-Diphenyl-2-Butene] it was “No inhibition”.
As for `NCc1cccnc1` [3-Aminomethylpyridine], the Substrate behaviour entry in data set [2] (zMAO) is “Not a Substrate”. Moreover, at hMAO B [3] (ref Li, (2006)), the turnover number (kcat) was 223 ±5 ^c min^−1. Further, on hMAO A [4] (competitive inhibitor, ref Li, (2006)), the inhibitory constant (Ki) is 5200 µM.
`Cn1c(=O)c2c(nc(C=Cc3cccc(Cl)c3)n2C)n(C)c1=O` [8-(3-Chlorostyryl)-caffeine] showed a Ki in data set [1] of 2.4 ± 0.6 µM.
Regarding `NCCc1ccc(O)c(O)c1` [Dopamine], the kcat in data set [2] (zMAO, 25 °C, pH 7.4) is 4.03 s⁻¹; at hMAO A [5] (et al. (2002)) it was 71 ±4 ^a min^−1; at hMAO B [3] (setting [14]), 65 ±12 ^b min^−1. Besides, the Km at hMAO A [5] (et al. (2002)) is 240 ± 42 µM; at hMAO B [3] (setting [14]) it was 128 ± 15 µM.
For the molecule `CC(C)=CCC/C(C)=C/CC/C(C)=C/CO` [Farnesol, trans-trans-farnesol], the Ki result in [1] (setting [13]) is recorded as “No inhibition”.
In data set [1], `Cc1nccc2c1[nH]c1ccccc12` [Harmane] returned a Ki of 0.13 ± 0.02 µM.
`NCCC(=O)c1ccccc1N` [Kynuramine]: the catalytic constant (kcat) is 1.25 s⁻¹ in data set [2] (zMAO, 25 °C, pH 7.4); 125 ±8 ^a min^−1 on hMAO A [5] (et al. (2002)); 96 ±11 ^b min^−1 on hMAO B [3] (setting [14]).
Regarding `CS(=O)(=O)O.Cc1ccc2c(c1)c1c3n2CCNC3CCC1` (stereo not drawn) [Pirlindole Mesylate], the inhibition constant (Ki) was 2.4 ± 0.4 µM in [1] (setting [15]); “No Inhibition” on hMAO B [6]; 0.92 ± 0.04 µM on hMAO A [4] (ref Wang, et al. (2009)).
In the case of `C[C@H](NCc1ccc(OCc2cccc(F)c2)cc1)C(N)=O` [Safinamide], the Ki entry in data set [1] (setting [13]) was “No inhibition”.
`NCCc1c[nH]c2ccc(O)cc12` [Serotonin]: the Km was 295 ± 46 µM at hMAO A [5] (et al. (2002)) and 2270 ± 310 µM at hMAO B [3] (setting [14]).
As to `CS(=O)(=O)O.c1cc2c(cc1C1CCCCC1)c1c3n2CCNC3CCC1` (stereo not drawn) [Tetrindole Mesylate], the Ki in data set [1] (setting [15]) is 34.1 ± 2 µM; at hMAO B [6], “No Inhibition”; on hMAO A [4] (ref Wang, et al. (2009)), 5.3 ± 0.2 µM.
Take `NCCc1ccc(O)cc1` [Tyramine]: the kcat was 7.78 s⁻¹ in data set [2] (zMAO, 25 °C, pH 7.4); 182 min⁻¹ at hMAO A [5] ((2006), listed as tyramine); 182 ±26 ^c min^−1 at hMAO A [5] ((2006)). At hMAO A [5] ((2006)), the Km was 427 ± 18 µM.
Consider `C[C@H](N)Cc1ccccc1` [d-Amphetamine], for which the Mode of inhibition entry in [1] (zMAO catalyzed kynuramine oxidation) was “uncompetitive inhibitor”; at hMAO A [4] (human MAO A, ref Vintém et al., 2005) it was “competitively inhibits”; on hMAO B [7] (human MAO B, depending on the substrate, ref Pearce and Roth, 1985) it was “either as a competitive or as a mixed inhibitor”. Further, the Ki in data set [1] (setting [15]) was 38 ± 5.1 µM; on hMAO B [7] (hMAO B, ref Li, (2006)), 280 ± 10 µM.
In the case of `NCc1ccc(Br)cc1` [p-Br], the Km in [2] (setting [16]) was 103 ± 20 µM. Moreover, in data set [2] (zMAO), the “^Dkcat” value is 8.2 ± 0.7 min⁻¹ and the “kcat (D)” value turned out to be 0.0813 ± 0.00283 s⁻¹. In addition, the “kcat (H)” value in [2] (setting [17]) came to 0.667 ± 0.05 s⁻¹.
For `NCc1ccc(C(F)(F)F)cc1` [p-CF3], in that order: 115 ± 36 µM, 4.2 ± 0.3 min⁻¹, 0.375 ± 0.025 s⁻¹ and 1.57 ± 0.12 s⁻¹.
For `NCc1ccc(Cl)cc1` [p-CI], in that order: 94 ± 10 µM, 5.9 ± .2 min⁻¹, 0.0983 ± 0.00283 s⁻¹ and 0.583 ± 0.017 s⁻¹.
In the case of `NCc1ccc(C(=O)O)cc1` [p-Carboxybenzylamine], in data set [2] (zMAO, 25 °C, pH 7.4), the Km was 76 ± 8 µM and the kcat was determined as 0.0883 ± 0.0033 s⁻¹.
Turning to `NCc1ccc(F)cc1` [p-F], the Km in data set [2] (setting [16]) came out at 161 ± 8 µM. In addition, in data set [2] (zMAO), the “^Dkcat” value turned out to be 6.7 ± 0.2 min⁻¹ and the “kcat (D)” value amounted to 0.0372 ± 0.00083 s⁻¹. For the same molecule, in [2] (setting [17]), the “kcat (H)” value was found to be 0.248 ± 0.005 s⁻¹.
As for `NCc1ccccc1` [p-H, benzylamine], the Kd in data set [2] was 3.3 µM. Moreover, in [2] (zMAO), the “^Dkcat” value stood at 2.0 ± 0.2 min⁻¹ and the “kcat (D)” value amounted to 0.039 ± 0.00333 s⁻¹.
In the case of `COc1ccc(CN)cc1` [p-MeO], the Km in data set [2] (setting [16]) stood at 55.5 ± 4.1 µM. In data set [2] (zMAO), the “^Dkcat” value was 5.9 ± 0.7 min⁻¹ and the “kcat (D)” value was 0.0237 ± 0.00083 s⁻¹. Also, in data set [2] (setting [17]), the “kcat (H)” value was determined as 0.138 ± 0.012 s⁻¹.
For `Cc1ccc(CN)cc1` [p-Me] the same measures were 67.8 ± 4.1 µM, 6.4 ± 0.2 min⁻¹, 0.018 ± 0.00033 s⁻¹ and 0.115 ± 0.0017 s⁻¹.
For `CC(C)(C)c1ccc(CN)cc1` [p-t-Butyl], in data set [2] (setting [16]), the Km was found to be 48 ± 6 µM. Besides, in [2] (zMAO), the “^Dkcat” value stood at 2.0 ± 0.1 min⁻¹ and the “kcat (D)” value was 0.0567 ± 0.0033 s⁻¹. In addition, in data set [2] (setting [17]), the “kcat (H)” value is 0.115 ± 0.0033 s⁻¹.

B1: zebrafish monoamine oxidase (zMAO) (Danio rerio) (protein)
chain: MTANAYDVIVIGGGISGLSAAKLLVDSGLNPVVLEARSRVGGRTYTVQNKETKWVDLGGAYIGPTQNRILRIAKQYGVKTYKVNEEESLVHYVKGKSYPFKGPFPPMWNPFAYMDYNNLWRTMDKMGMEIPKEAPWRAPHAEEWDKMTMQQLFDKICWTRSARRFATLFVNVNVTSEPHEVSALWFLWYVKQCGGTMRIFSTTNGGQERKFAGGANQISEGMARELGDRVKLSRAVCSIDQTGDLVEVRTVNEEVYKAKYVILAIPPGLNLKIHFNPELPPLRNQLIHRVPMGSVIKCMVYYKENFWRKKGYCGSMVIEEEDAPIGLTLDDTKPDGSVPAIMGFILARKSRKLANLTRDERKRRICEIYARVLGSEEALYPVHYEEKNWCEEEYSGGCYTAYFPPGIMTQFGRVLREPVGRLYFAGTETATEWSGYMEGAVQAGERASREVMCAMGKLHASQIWQSEPESMDVPARPFVTTFWERNLPSVGGFLKFMGVSSFLAAATAAGLVACKKGLLPRC
For the molecule B1, the Michaelis constant (Km) in data set [8] stood at 58 ± 5 µM; in [9], 185 ± 17 µM; in [10], 18 ± 3 µM; in data set [11], 82.2 ± 9.0 µM; in [12] it was 88 ± 14 µM. In addition, the catalytic constant (kcat) in data set [8] is 1.25 ± 0.0333 s⁻¹; in data set [9], 2.07 ± 0.0667 s⁻¹; in data set [10] it was 7.78 ± 0.333 s⁻¹; in [11] it was 0.0783 ± 0.0017 s⁻¹; in data set [12] it was 4.03 s⁻¹. In [9], the kcat/Km stood at 11200 M⁻¹ s⁻¹.
